# Test system: MCH receptors
# Assay: MCH receptor activity class (method not given)
# Conditions: class by percent of control at 10^-7 M or IC50
row,SMILES,class
1,CN(C)c1cc(N[C@H]2CC[C@@H](CNCCc3ccc(Br)cc3)CC2)nc2ccccc12 [compound 1463],3 (Class 3 The value of percent of control at 10^−7 M was more than 60% or the value of IC50 was more than 200 nM.)
2,COc1ccc(CCCCNC[C@H]2CC[C@@H](Nc3cc(N(C)C)c4ccccc4n3)CC2)cc1 [compound 1464],3 (Class 3 The value of percent of control at 10^−7 M was more than 60% or the value of IC50 was more than 200 nM.)
3,CN(C)c1cc(N[C@H]2CC[C@@H](CNCCCCCCc3ccccc3)CC2)nc2ccccc12 [compound 1465],3 (Class 3 The value of percent of control at 10^−7 M was more than 60% or the value of IC50 was more than 200 nM.)
4,Cc1cc(C)c(CCNC[C@H]2CC[C@@H](Nc3cc(N(C)C)c4ccccc4n3)CC2)c(C)c1 [compound 1466],3 (Class 3 The value of percent of control at 10^−7 M was more than 60% or the value of IC50 was more than 200 nM.)
5,CN(C)c1cc(N[C@H]2CC[C@@H](CNCCCCCCCCc3ccccc3)CC2)nc2ccccc12 [compound 1467],3 (Class 3 The value of percent of control at 10^−7 M was more than 60% or the value of IC50 was more than 200 nM.)
6,CN(C)c1cc(N[C@H]2CC[C@@H](CNCCc3ccc(C(C)(C)C)cc3)CC2)nc2ccccc12 [compound 1468],3 (Class 3 The value of percent of control at 10^−7 M was more than 60% or the value of IC50 was more than 200 nM.)
7,CN(C)c1cc(N[C@H]2CC[C@@H](CNCCCC#Cc3ccccc3)CC2)nc2ccccc12 [compound 1469],3 (Class 3 The value of percent of control at 10^−7 M was more than 60% or the value of IC50 was more than 200 nM.)
8,COc1ccccc1CCNC[C@H]1CC[C@@H](Nc2cc(N(C)C)c3ccccc3n2)CC1 [compound 1470],3 (Class 3 The value of percent of control at 10^−7 M was more than 60% or the value of IC50 was more than 200 nM.)
9,CN(C)c1cc(N[C@H]2CC[C@@H](CNCCCOc3ccccc3)CC2)nc2ccccc12 [compound 1471],3 (Class 3 The value of percent of control at 10^−7 M was more than 60% or the value of IC50 was more than 200 nM.)
10,CN(C)c1cc(N[C@H]2CC[C@@H](CNCc3c(F)c(F)cc(F)c3F)CC2)nc2ccccc12 [compound 1472],3 (Class 3 The value of percent of control at 10^−7 M was more than 60% or the value of IC50 was more than 200 nM.)
11,CN(C)c1cc(N[C@H]2CC[C@@H](CNCc3cc(Cl)ccc3Cl)CC2)nc2ccccc12 [compound 1473],3 (Class 3 The value of percent of control at 10^−7 M was more than 60% or the value of IC50 was more than 200 nM.)
12,COc1ccc(Cl)cc1CNC[C@H]1CC[C@@H](Nc2cc(N(C)C)c3ccccc3n2)CC1 [compound 1474],3 (Class 3 The value of percent of control at 10^−7 M was more than 60% or the value of IC50 was more than 200 nM.)
13,COc1cc(Cl)ccc1CNC[C@H]1CC[C@@H](Nc2cc(N(C)C)c3ccccc3n2)CC1 [compound 1475],3 (Class 3 The value of percent of control at 10^−7 M was more than 60% or the value of IC50 was more than 200 nM.)
14,Cc1ccc(CNC[C@H]2CC[C@@H](Nc3cc(N(C)C)c4ccccc4n3)CC2)cc1I [compound 1476],3 (Class 3 The value of percent of control at 10^−7 M was more than 60% or the value of IC50 was more than 200 nM.)
15,C[C@@H](CNC[C@H]1CC[C@@H](Nc2cc(N(C)C)c3ccccc3n2)CC1)N(Cc1ccccc1)Cc1ccccc1 [compound 1477],3 (Class 3 The value of percent of control at 10^−7 M was more than 60% or the value of IC50 was more than 200 nM.)
16,CCCc1c(CNC[C@H]2CC[C@@H](Nc3cc(N(C)C)c4ccccc4n3)CC2)cnn1-c1ccccc1 [compound 1478],1 (Class 1: The value of percent of control at 10^−7 M was less than 40% or the value of IC50 was less than 50 nM.)
17,CCCc1c(CNC[C@H]2CC[C@@H](Nc3cc(N(C)C)c4ccccc4n3)CC2)cnn1-c1ccc(Cl)cc1 [compound 1479],1 (Class 1: The value of percent of control at 10^−7 M was less than 40% or the value of IC50 was less than 50 nM.)
